Fold expansion data for 1 compound are collected here from PMC7719179, “Small molecule inhibition of Dynamin-dependent endocytosis targets multiple niche signals and impairs leukemia stem cells” (Nature Communications, 2020).

This experiment has as its system Ba/F3-IL7R^Stat5-CA cells. Kind of experiment: pStat5 and proliferation of Ba/F3-IL7R^Stat5-CA cells with IL-7 or doxycycline. The format is cell-based, murine. The following applies: relative to data from day 0, reported as 1, groups +IL-7 -DOX or -IL-7 +DOX. As to the method: Ba/F3 cells (kindly provided by a person from The Walter and Eliza Hall Institute of Medical Research) were infected with pMIG-R1/Il7r retroviral supernatants produced in 293T cells, and transduced cells were sorted with a BD Influx (BD Australia) and selected by culture in medium supplemented with 5 ng/mL rmIL-7 (#217-17, Pepro Tech, Rocky Hill NJ, USA) for 7 days. Ba/F3 cells stably expressing Il7r (Ba/F3-IL7R) were infected with TxTCPVIR-Stat5-CA retroviral supernatants produced in 293T. Cell sorting was performed with a BD Influx and transduced cells were treated with doxycycline for 48 h to induce the expression of the Stat5-CA-T2A-mCherry fusion protein. […]
(red) assessed by flow cytometry (top) and Western blots (bottom). MFI ± SD of n=2 technical replicates, performed in 2 independent experiments (***P<0.001 compared to unstimulated cells ; white bar). For Western blots, Actin was used as a loading control. f, Proliferation of BaF3-IL7R Stat5-CA cells in absence (+IL-7 –DOX; grey) or presence (-IL-7 +DOX; red) of doxycycline. Fold expansion was calculated from the number of cells initially put into culture at day 0. […]

“And” between values parts separate entries of the source, which are not always exact repeats. Identical values can stand only once.

`C[C@H]1c2cccc(O)c2C(=O)C2=C(O)[C@]3(O)C(=O)C(C(N)=O)=C(O)[C@@H](N(C)C)[C@@H]3[C@@H](O)[C@@H]21` [DOX]: the Fold expansion is 0.89 and 0.85 and 0.86 and 0.90 and 0.74 and 0.77 (24 h); 1.39 and 1.43 and 1.24 and 1.40 and 1.29 and 1.28 (48 h); 2.22 and 2.26 and 3.46 and 3.54 and 3.68 and 3.14 (72 h); 3.24 and 3.39 and 3.99 and 3.41 and 3.51 and 3.96 (96 h); 10.84 and 12.62 and 8.80 and 9.76 and 7.34 and 8.20 (120 h).
